{"source": "patent US20100303790A1", "about": "“USE OF BILIVERDIN REDUCTASE (BVR) AND BVR PEPTIDE FRAGMENTS TO TREAT CORONARY DISORDERS” (UNIVERSITY OF ROCHESTER, priority 2009, published 2010)", "tested_on": "rat neonatal cardiomyocytes", "assay": "BVR, HO-2 and HO-1 protein levels in rat neonatal cardiomyocytes (western blot)", "type": "cell-based", "procedure": "Neonatal Rat Cardiomyocytes: Primary cultures of neonatal rat cardiomyocytes were prepared as described previously (Ding et al., “Functional Role of Phosphodiesterase 3 in Cardiomyocyte Apoptosis: Implication in Heart Failure,” Circulation 111:2469-2476 (2005) which is hereby incorporated by reference in its entirety). Briefly, fragmented ventricular tissue from 1-2 day old Sprague-Dawley rats was subjected to multiple rounds of enzymatic digestion with collagenase II (Worthington, Lakewood, N.J.). The cells were then collected by low speed centrifugation at 4° C. Non-myocytes were removed by two rounds of pre-plating the cells on culture dishes. The enriched cardiomyocytes were cultured in DMEM with 10% FBS and 10% horse serum. The day after cell adhesion, 10 μM cytosine 1-β-D-arabinofuranoside (Sigma, St. Louis, Mo.) was added to inhibit the growth of contaminating non-myocytes.\nPlasmids and Constructs: Adenovirus for expression of an endogenous PKA inhibitor (PKA251 bp) was prepared as described previously (Ding et al., “Functional Role of Phosphodiesterase 3 in Cardiomyocyte Apoptosis: Implication in Heart Failure,” Circulation 111:2469-2476 (2005), which is hereby incorporated by reference in its entirety). Rat BVR and HO-2 siRNA were designed based on the human sequences (Miralem et al., “Small Interference RNA-Mediated Gene Silencing of Human Biliverdin Reductase, but not that of Heme Oxygenase-1, Attenuates Arsenite-Mediated Induction of the Oxygenase and Increases Apoptosis in 293A Kidney Cells,” J Biol Chem 280:17084-17092 (2005), which is hereby incorporated by reference in its entirety). The BVR targeting site is at nucleotides 94-114, and the HO-2 targeting site is at nucleotides 73-93, downstream of the start codon in each case. Oligonucleotides containing the sequence of a 21 nucleotide small interference RNA were synthesized as follows: BVR siRNA, 5′-GATCCCC ([…]) TTCAAGAG ([…]) TTTTTGGAAA (SEQ ID NO:61) and 5′-AGCTTTTCCAAAAA ([…]) TCTCTTGAA ([…]) GGG (SEQ ID NO:62; HO-2 siRNA, 5′-GATCCCC ([…]) TTCAAGAGA ([…]) TTTTTGGAAA (SEQ ID NO:63) and 3′-AGCTTTTCCAAAAA ([…]) TCTCTTGAA ([…]) GGG (SEQ ID NO:64). Complementary oligonucleotides were annealed, then ligated into pSuper-Retro vector (OligoEngine Co. Seattle, Wash.). E. coli clones containing the desired constructs were identified by restriction analysis and verified by DNA sequencing. The retroviral DNA vectors for generating BVR si-rRNA and […] were transfected into the HEK293A packaging cell line, and the supernatant containing the expressed si-rBVR or si-rHO-2 retrovirus was then titrated in NIH3T3 cells. Retrovirus expressing siRNA was used to infect cells at a multiplicity of infection of 4 plaque-forming units/cell. The plasmid pcDNA-hBVR has previously been described (Lerner-Marmarosh et al., “Human Biliverdin Reductase: A Member of the Insulin Receptor Substrate Family with Serine/Threonine/Tyrosine Kinase Activity,” Proc Natl Acad Sci US A 102:7109-7114 (2005), which is hereby incorporated by reference in its entirety); pcDNA-hHO2 was constructed by cloning the HO-2 open reading frame into pcDNA3. […]", "key": {"[1]": {"settings": "10 μM isoproterenol, western blot"}}, "data": [{"compound": "CC(C)NCC(O)c1ccc(O)c(O)c1", "note": "(centres unmarked) [isoproterenol]", "values": [{"measurement": "time for which increased levels of both proteins (BVR, HO-2) remained stable", "setting": "10 μM isoproterenol", "result": "up to 96 hours"}, {"measurement": "time by which BVR protein expression was elevated", "setting": "[1]", "result": "≤ 8", "unit": "h"}, {"measurement": "time by which HO-2 protein level began to increase", "setting": "[1]", "result": "≤ 12", "unit": "h"}, {"measurement": "time by which HO-2 protein level reached a plateau", "setting": "[1]", "result": "≤ 24", "unit": "h"}, {"measurement": "HO-1 protein expression", "setting": "isoproterenol treatment up to 96 hours", "result": "not detected"}]}]}
